Active and inactive are the calls of the source. The rule behind the calls is not given here.
Tests used:
Liver microsome [1] = experiment: Retention time of the compound in human liver microsomes by LC-MS/MS analysis; format: ADME
Cholinesterase = Cholinesterase (Homo sapiens, UniProt P06276)
Description: Inhibition of human plasmatic BChE using butyrylthiocholine as substrate preincubated for 5 mins followed by substrate addition measured every 2 mins by Ellman's method

Acetylcholinesterase [2] = target: T1, Acetylcholinesterase (Homo sapiens, UniProt P22303)
Description: Inhibition of human recombinant AChE using acetylthiocholine as substrate preincubated for 5 mins followed by substrate addition measured every 2 mins by Ellman's method

[3] = Acute toxicity in im dosed albino Wistar rat assessed as mortality measured within 48 hrs; format: organism-based; settings: in vivo
in vitro = settings: human, HepG2 cells
Description: Hepatotoxicity in human HepG2 cells assessed as cell viability after 24 hrs by MTT assay

HepG2 [4] = experiment: Hepatotoxicity in human HepG2 cells assessed as cell viability at 2 uM after 24 hrs by MTT assay; format: toxicity, cell-based; settings: hepg2, 24 h
HepG2 [5] = experiment: Hepatotoxicity in human HepG2 cells assessed as cell viability at 512 uM after 24 hrs by MTT assay; format: toxicity, cell-based; settings: hepg2, 24 h
[6] = Permeability of the compound at 50 to 100 uM after 18 hrs by PAMPA; format: physicochemical; settings: read-out: permeability
[7] = Metabolic stability in human liver microsomes assessed as compound remaining at 20 ug/ml after 1 hr by LC-MS/MS analysis; format: ADME; settings: read-out: Stability
HepG2 [8] = experiment: Hepatotoxicity in human HepG2 cells assessed as cell viability at 0.5 uM after 24 hrs by MTT assay; format: toxicity, cell-based; settings: hepg2, 24 h
[9] = Metabolic stability in human liver microsomes assessed as compound remaining at 50 ug/ml after 1 hr by LC-MS/MS analysis; format: ADME; settings: read-out: Stability
Acetylcholinesterase [10] = target: T1, Acetylcholinesterase; experiment: Competitive inhibition of human recombinant AChE using acetylthiocholine as substrate preincubated for 5 mins followed by substrate addition measured every 2 mins by Lineweaver-Burk plot analysis
[11] = Metabolic stability in human liver microsomes assessed as compound remaining at 1 ug/ml after 1 hr by LC-MS/MS analysis; format: ADME; settings: read-out: Stability
Acetylcholinesterase [12] = target: T1, Acetylcholinesterase; settings: 100 to 562 nM
Liver microsome [13] = experiment: Drug metabolism in human liver microsomes assessed as decrease in 8-(6-chloro-1,2,3,4-tetrahydroacridin-9-ylamino)octanoic acid AUC after 1 hr by extracted ion chromatogram analysis; format: ADME

Chain of Cholinesterase (P06276 whole entry): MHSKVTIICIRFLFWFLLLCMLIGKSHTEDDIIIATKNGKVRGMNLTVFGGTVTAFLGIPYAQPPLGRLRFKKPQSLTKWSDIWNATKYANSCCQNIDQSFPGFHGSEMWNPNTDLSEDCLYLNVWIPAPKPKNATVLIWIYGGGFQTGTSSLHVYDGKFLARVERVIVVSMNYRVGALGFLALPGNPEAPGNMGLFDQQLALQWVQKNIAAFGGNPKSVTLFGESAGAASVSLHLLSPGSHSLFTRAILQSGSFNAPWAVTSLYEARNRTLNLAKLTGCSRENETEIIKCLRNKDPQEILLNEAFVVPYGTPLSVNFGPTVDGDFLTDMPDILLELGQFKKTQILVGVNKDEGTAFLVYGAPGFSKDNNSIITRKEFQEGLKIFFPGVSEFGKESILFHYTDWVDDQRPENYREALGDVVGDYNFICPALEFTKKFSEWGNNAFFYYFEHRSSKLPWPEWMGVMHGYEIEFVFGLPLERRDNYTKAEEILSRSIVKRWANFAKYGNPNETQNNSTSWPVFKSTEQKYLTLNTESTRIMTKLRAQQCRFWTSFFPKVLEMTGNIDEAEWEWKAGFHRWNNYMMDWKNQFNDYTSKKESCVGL
T1 sequence (P22303 whole entry): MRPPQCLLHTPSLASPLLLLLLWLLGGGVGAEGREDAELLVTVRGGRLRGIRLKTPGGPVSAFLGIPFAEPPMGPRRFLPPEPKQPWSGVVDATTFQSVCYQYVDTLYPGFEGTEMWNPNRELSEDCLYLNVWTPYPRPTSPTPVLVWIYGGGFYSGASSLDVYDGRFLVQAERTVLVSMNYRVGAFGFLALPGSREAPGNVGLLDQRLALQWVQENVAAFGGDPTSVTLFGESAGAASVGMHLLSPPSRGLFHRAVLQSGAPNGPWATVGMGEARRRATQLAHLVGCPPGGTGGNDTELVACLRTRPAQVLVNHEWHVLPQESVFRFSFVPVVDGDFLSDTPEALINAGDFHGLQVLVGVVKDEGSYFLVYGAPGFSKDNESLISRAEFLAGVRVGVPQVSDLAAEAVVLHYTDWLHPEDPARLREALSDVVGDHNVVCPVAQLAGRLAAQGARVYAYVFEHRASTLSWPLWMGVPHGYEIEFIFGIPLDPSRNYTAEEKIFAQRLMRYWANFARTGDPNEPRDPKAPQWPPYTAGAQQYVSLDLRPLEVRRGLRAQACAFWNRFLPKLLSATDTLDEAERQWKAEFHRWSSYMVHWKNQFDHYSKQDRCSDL

SMILES: O=C(O)CCCCCCCNc1c2c(nc3cc(Cl)ccc13)CCCC2
- Retention_time (Liver microsome [1]): 6.52 min

SMILES: Cc1c(C)c2c(c(C)c1O)CCC(C)(C(=O)NCCNc1c3c(nc4cc(Cl)ccc14)CCCC3)O2 (stereo not given)
- IC50 (Cholinesterase): 0.02 µM
- EC50: 67.8 µM
- IC50 (Acetylcholinesterase [2]): 0.21 µM

SMILES: Cc1c(C)c2c(c(C)c1O)CCC(C)(C(=O)NCCCCCCCNc1c3c(nc4ccccc14)CCCC3)O2 (stereo not given)
- IC50 (Cholinesterase): 0.13 µM
- EC50: > 100 µM
- IC50 (Acetylcholinesterase [2]): 0.69 µM

SMILES: Nc1c2c(nc3cc(Cl)ccc13)CCCC2
- EC50: > 100 µM
- LD50 at 48 h [3]: 7.5 mg/kg
- IC50 at 24 h (in vitro): 7.13 µM

SMILES: Cc1c(C)c2c(c(C)c1O)CCC(C)(C(=O)NCCCCCCNc1c3c(nc4cc(Cl)ccc14)CCCC3)O2 (stereo not given)
- IC50 (Cholinesterase): 0.4 µM
- EC50: 48.8 µM
- IC50 at 24 h (in vitro): 0.7 µM
- IC50 (Acetylcholinesterase [2]): 0.1 µM

SMILES: COc1ccc2nc3c(c(NCCCCCCNC(=O)C4(C)CCc5c(C)c(O)c(C)c(C)c5O4)c2c1)CCCC3 (stereo not given)
- IC50 (Cholinesterase): 0.69 µM
- EC50: 58.8 µM
- IC50 (Acetylcholinesterase [2]): 6.61 µM

SMILES: COc1ccc2nc3c(c(NCCCCNC(=O)C4(C)CCc5c(C)c(O)c(C)c(C)c5O4)c2c1)CCCC3 (stereo not given)
- IC50 (Cholinesterase): 0.29 µM
- EC50: > 100 µM
- IC50 (Acetylcholinesterase [2]): 7.21 µM

SMILES: Cc1c(C)c2c(c(C)c1O)CCC(C)(C(=O)NCCCCNc1c3c(nc4cc(Cl)ccc14)CCCC3)O2 (stereo not given)
- IC50 (Cholinesterase): 0.09 µM
- EC50: 50.8 µM
- IC50 (Acetylcholinesterase [2]): 0.15 µM

SMILES: COc1ccc2nc3c(c(NCCCNC(=O)C4(C)CCc5c(C)c(O)c(C)c(C)c5O4)c2c1)CCCC3 (stereo not given)
- Activity (HepG2 [4]): Non-toxic
- IC50 (Cholinesterase): 0.62 µM
- EC50: > 100 µM
- IC50 (Acetylcholinesterase [2]): 1.54 µM

SMILES: Cc1c(C)c2c(c(C)c1O)CCC(C)(C(=O)NCCCCCCNc1c3c(nc4ccccc14)CCCC3)O2 (stereo not given)
- IC50 (Cholinesterase): 0.19 µM
- EC50: 61.8 µM
- IC50 at 24 h (in vitro): 2 µM
- IC50 (Acetylcholinesterase [2]): 0.36 µM

SMILES: COc1ccc2nc3c(c(N)c2c1)CCCC3
- EC50: > 100 µM
- IC50 at 24 h (in vitro): 11.5 µM

SMILES: Cc1c(C)c2c(c(C)c1O)CCC(C)(C(=O)NCCCCNc1c3c(nc4ccccc14)CCCC3)O2 (stereo not given)
- IC50 (Cholinesterase): 0.08 µM
- EC50: > 100 µM
- IC50 (Acetylcholinesterase [2]): 0.95 µM

SMILES: COc1ccc2nc3c(c(NCCCCCCCNC(=O)C4(C)CCc5c(C)c(O)c(C)c(C)c5O4)c2c1)CCCC3 (stereo not given)
- IC50 (Cholinesterase): 0.7 µM
- EC50: 59 µM
- IC50 (Acetylcholinesterase [2]): 6.72 µM

SMILES: OCCCCCCCCNc1c2c(nc3cc(Cl)ccc13)CCCC2
- Retention_time (Liver microsome [1]): 6.56 min

SMILES: COc1ccc2nc3c(c(NCCCCCCCCNC(=O)C4(C)CCc5c(C)c(O)c(C)c(C)c5O4)c2c1)CCCC3 (stereo not given)
- IC50 (Cholinesterase): 1.53 µM
- EC50: > 100 µM
- IC50 at 24 h (in vitro): 0.92 µM
- IC50 (Acetylcholinesterase [2]): 3.48 µM

SMILES: Cc1c(C)c2c(c(C)c1O)CCC(C)(C(=O)O)O2 (stereo not given) [TROLOX]
- IC50 (Cholinesterase): > 1000 µM
- EC50: 16.2 µM
- Activity (HepG2 [5]): Non-toxic
- IC50 (Acetylcholinesterase [2]): 186 µM

SMILES: Cc1c(C)c2c(c(C)c1O)CCC(C)(C(=O)NCCNc1c3c(nc4ccccc14)CCCC3)O2 (stereo not given)
- IC50 (Cholinesterase): 0.06 µM
- EC50: > 100 µM
- Papp at 18 h, 100 µM [6]: 4.4 ×10⁻⁶ cm/s
- IC50 (Acetylcholinesterase [2]): 6.97 µM

SMILES: Cc1c(C)c2c(c(C)c1O)CCC(C)(C(=O)NCCCCCCCCNc1c3c(nc4ccccc14)CCCC3)O2 (stereo not given)
- IC50 (Cholinesterase): 0.16 µM
- EC50: 66.5 µM
- IC50 (Acetylcholinesterase [2]): 0.69 µM

SMILES: COc1ccc2nc3c(c(NCCCCCNC(=O)C4(C)CCc5c(C)c(O)c(C)c(C)c5O4)c2c1)CCCC3 (stereo not given)
- IC50 (Cholinesterase): 0.4 µM
- EC50: 62.7 µM
- IC50 (Acetylcholinesterase [2]): 13.3 µM

SMILES: COc1ccc2nc3c(c(NCCNC(=O)C4(C)CCc5c(C)c(O)c(C)c(C)c5O4)c2c1)CCCC3 (stereo not given)
- IC50 (Cholinesterase): 1.3 µM
- EC50: 95.9 µM
- IC50 at 24 h (in vitro): 4.9 µM
- IC50 (Acetylcholinesterase [2]): 4.36 µM

SMILES: Cc1c(C)c2c(c(C)c1O)CCC(C)(C(=O)NCCCCCCCCNc1c3c(nc4cc(Cl)ccc14)CCCC3)O2 (stereo not given)
- IC50 (Cholinesterase): 0.54 µM
- remaining at 1 h, 20 ug/ml [7]: 85.5%
- Retention_time (Liver microsome [1]): 7.52 min
- Activity (HepG2 [8]): Non-toxic
- remaining at 1 h, 50 ug/ml [9]: 85.4%
- EC50: 44.1 µM
- Ki (Acetylcholinesterase [10]): 0.0495 µM
- LD50 at 48 h [3]: > 500 mg/kg
- remaining at 1 h, 1 ug/ml [11]: 58.2%
- Papp at 18 h, 100 µM [6]: 5 ×10⁻⁶ cm/s
- IC50 (Acetylcholinesterase [2]): 0.08 µM
- inhibition (Acetylcholinesterase [12]): Active
- Drug metabolism (Liver microsome [13]): 3.1%

SMILES: Cc1c(C)c2c(c(C)c1O)CCC(C)(C(=O)NCCCCCCCNc1c3c(nc4cc(Cl)ccc14)CCCC3)O2 (stereo not given)
- IC50 (Cholinesterase): 0.7 µM
- Activity (HepG2 [8]): Non-toxic
- EC50: 44.2 µM
- IC50 (Acetylcholinesterase [2]): 0.08 µM

SMILES: Cc1c(C)c2c(c(C)c1O)CCC(C)(C(=O)NCCCCCNc1c3c(nc4cc(Cl)ccc14)CCCC3)O2 (stereo not given)
- IC50 (Cholinesterase): 0.13 µM
- EC50: 49.8 µM
- IC50 (Acetylcholinesterase [2]): 0.12 µM

SMILES: Cc1c(C)c2c(c(C)c1O)CCC(C)(C(=O)NCCCNc1c3c(nc4ccccc14)CCCC3)O2 (stereo not given)
- IC50 (Cholinesterase): 0.08 µM
- EC50: 51.3 µM
- IC50 at 24 h (in vitro): 13.2 µM
- IC50 (Acetylcholinesterase [2]): 0.26 µM

SMILES: Cc1c(C)c2c(c(C)c1O)CCC(C)(C(=O)NCCCCCNc1c3c(nc4ccccc14)CCCC3)O2 (stereo not given)
- IC50 (Cholinesterase): 0.56 µM
- EC50: 65.6 µM
- IC50 at 24 h (in vitro): 8.7 µM
- IC50 (Acetylcholinesterase [2]): 0.62 µM

SMILES: CC1=C(C)C(=O)C(CCC(C)(O)C(=O)NCCCCCCCCNc2c3c(nc4cc(Cl)ccc24)CCCC3)=C(C)C1=O (stereo not given)
- Retention_time (Liver microsome [1]): 7.35 min

SMILES: Cc1c(C)c2c(c(C)c1O)CCC(C)(C(=O)NCCCNc1c3c(nc4cc(Cl)ccc14)CCCC3)O2 (stereo not given)
- IC50 (Cholinesterase): 0.77 µM
- EC50: 48.8 µM
- IC50 (Acetylcholinesterase [2]): 0.08 µM

SMILES: CC1=C(C)C(=O)C(CCC(C)(O)C(=O)NC(O)CCCCCCCNc2c3c(nc4cc(Cl)ccc24)CCCC3)=C(C)C1=O (stereo not given)
- Retention_time (Liver microsome [1]): 7.1 min
